Reference: US20200222564A1, “Compound Amphiphilic Peptide Nanomicelle, Preparation and Use Thereof” (Tianjin University, priority 2019, published 2020)

Test system: CNE-2Z cells
Assay: CCK-8 cytotoxicity in CNE-2Z cells
Assay type: cell-based
Settings: 0-100 μg/mL, 24 h in the dark
Procedure: First of all, the designed concentration (0, 20, 40, 60, 80 and 100 μg/mL) solution of nanomicelle and rose bengal were prepared with 1640 medium. CNE-2Z cells were seeded into a 96-well player at a density of 2×10^4 cells per well. Each sample with a certain concentration was added to 5 wells. The cytotoxicity of the pure rose bengal and the nanomicelle solution at different concentrations was compared. After culturing for 48 hours, the cells were grown to 80%, and the medium containing different volumes of nanomicelle and rose bengal solution was added instead of the original medium according to the experimental group setting. After an additional incubation for 24 h at 37° C. in the dark, fresh medium (100 μL) together with CCK-8 (10 μL) was added followed by […] on a microplate reader at a wavelength of 450 nm. Cell viability was calculated according to the formula, with the maximum and minimum of OD values excluded:
Cell Viability=average of (OD−ODblk)/average of (OD0−ODblk)×100%

In the case of `O=C([O-])c1c(Cl)c(Cl)c(Cl)c(Cl)c1-c1c2cc(I)c(=O)c(I)c-2oc2c(I)c([O-])c(I)cc12.[Na+].[Na+]` [Rose Bengal], the “toxicity to CNE-2Z cells” value is reported as “less toxic”.
